These results are taken from patent US7517889B2, “2,6-substituted-4-monosubstitutedamino-pyrimidine as prostaglandin D2 receptor antagonists” (Aventis Pharmaceuticals, Inc., priority 2004, dated 2009).

The target in this assay is T1, DP receptor (Homo sapiens, UniProt Q13258).
T1 construct: the human cell line LS174T, which expresses the endogenous DP receptor; endogenous in cells; host or cells: LS174T human cell line
T1 sequence (Q13258 1-359): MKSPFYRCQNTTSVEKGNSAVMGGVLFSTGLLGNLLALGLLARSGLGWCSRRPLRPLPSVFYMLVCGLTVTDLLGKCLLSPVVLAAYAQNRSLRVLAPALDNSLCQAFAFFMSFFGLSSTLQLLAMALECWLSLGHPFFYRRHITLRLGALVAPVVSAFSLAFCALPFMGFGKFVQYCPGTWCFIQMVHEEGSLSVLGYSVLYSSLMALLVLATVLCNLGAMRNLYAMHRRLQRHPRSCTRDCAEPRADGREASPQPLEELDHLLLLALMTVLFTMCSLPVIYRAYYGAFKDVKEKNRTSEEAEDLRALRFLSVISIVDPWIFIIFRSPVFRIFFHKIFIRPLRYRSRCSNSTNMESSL
In words: SPA cAMP assay in human LS174 T cells (human DP functional assay). Type of assay: cell-based. As to conditions: inhibition of PGD2 (15 nM final) stimulated cAMP, LS174T cells expressing endogenous DP receptor. Put shortly:
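LS174T cells with endogenous DP receptor, 45,000/well seeded overnight, exposed to compounds at 11 points for 15 min at 37 °C in buffer containing IBMX, with PGD2 stimulation.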
In general terms: Changes in cAMP serve as a functional read-out for many G protein-coupled receptors.

Structures can show the parent of a compound that is named as a salt.

A word on the IC50: it is the midpoint of a concentration-inhibition curve. A higher IC50 goes with lower potency.

In the case of `COc1nc(NCCc2c(F)cccc2Cl)cc(-c2ccc(=O)n(Cc3n[nH]c(=O)o3)c2)n1` [Example 33, 5-{6-[2-(2-Chloro-6-fluoro-phenyl)-ethylamino]-2-methoxy-pyrimidin-4-yl}-1-(5-oxo-4,5-dihydro-[1,3,4]oxadiazol-2-ylmethyl)-1H-pyridin-2-one], inhibition was half-maximal at 1.2 nM (IC50).

Regarding `COc1nc(NCCc2c(F)cccc2Cl)cc(-c2cccc(Cc3noc(=O)[nH]3)c2)n1` [Example 34(b), 3-(3-{6-[2-(2-Chloro-6-fluoro-phenyl)-ethylamino]-2-methoxy-pyrimidin-4-yl}-benzyl)-4H-[1,2,4]oxadiazol-5-one hydrochloride], the IC50 turned out to be 1 nM. `COc1nc(NCCc2c(F)cccc2Cl)cc(-c2cccc(OCc3noc(=O)[nH]3)c2)n1` [Example 34(c), 3-(3-{6-[2-(2-Chloro-6-fluoro-phenyl)-ethylamino]-2-methoxy-pyrimidin-4-yl}-phenoxymethyl)-4H-[1,2,4]oxadiazol-5-one hydrochloride] yielded an IC50 of 0.3 nM. For `COc1nc(NCCc2ccc(OC)c(OC)c2)cc(-c2ccco2)n1` [Example 35(d), [2-(3,4-Dimethoxy-phenyl)-ethyl]-(6-furan-2-yl-2-methoxy-pyrimidin-4-yl)-amine], the IC50 worked out at 256 nM.

Compound `COc1nc(NCCc2ccc(OC)c(OC)c2)cc(-c2ccc(-c3ccccc3)cc2)n1` [Example 35(e), (6-Biphenyl-4-yl-2-methoxy-pyrimidin-4-yl)-[2-(3,4-dimethoxy-phenyl)-ethyl]-amine] registered an IC50 of 369 nM. The same measure for `COc1ccc(CCNc2cc(-c3cccc(C(C)=O)c3)nc(OC)n2)cc1` [Example 35(h), 1-(3-{2-Methoxy-6-[2-(4-methoxy-phenyl)-ethylamino]-pyrimidin-4-yl}-phenyl)-ethanone]: 5 nM. As to `COc1ccc(CCNc2cc(-c3ccc(C(C)=O)s3)nc(OC)n2)cc1` [Example 35(m), 1-(5-{2-Methoxy-6-[2-(4-methoxy-phenyl)-ethylamino]-pyrimidin-4-yl}-thiophen-2-yl)-ethanone], it took 3.8 nM to reach half-maximal inhibition (IC50). Next, `COc1nc(NCCc2ccc(Cl)cc2)cc(-c2cccc(C(=O)O)c2)n1` [Example 35(n), 3-{6-[2-(4-chlorophenyl)-ethylamino]-2-methoxy-pyrimidin-4-yl}-benzoic acid hydrochloride]: 0.6 nM; `COc1ccc(CCNc2cc(-c3ccc(OC)nc3)nc(OC)n2)cc1` [Example 35(o), [2-Methoxy-6-(6-methoxy-pyridin-3-yl)-pyrimidin-4-yl]-[12-(4-methoxy-phenyl)-ethyl]-amine]: 1.7 nM.

Compound `COc1ccc(CCNc2cc(-c3ccncc3)nc(OC)n2)cc1` [Example 35(q), [2-(4-Methoxy-phenyl)-ethyl]-(2-methoxy-6-pyridin-4-yl-pyrimidin-4-yl)-amine] came in with an IC50 of 8 nM. Against the preceding compound, the IC50 is about 4.7-fold higher. The same measure for `COc1ccc(CCNc2cc(-c3ccccc3O)nc(OC)n2)cc1` [Example 35(r), 2-{2-Methoxy-6-[2-(4-methoxy-phenyl)-ethylamino]-pyrimidin-4-yl}-phenol]: 17 nM; for `COc1ccc(CCNc2cc(-c3cccc(CC#N)c3)nc(OC)n2)cc1` [Example 35(s), (3-{2-Methoxy-6-[2-(4-methoxy-phenyl)-ethylamino]-pyrimidin-4-yl}-phenyl)-acetonitrile]: 6 nM.

Turning to `COc1ccc(CCNc2cc(-c3cccc(C#N)c3)nc(OC)n2)cc1` [Example 35(t), 3-{2-Methoxy-6-[2-(4-methoxy-phenyl)-ethylamino]-pyrimidin-4-yl}-benzonitrile], it took 0.9 nM to reach half-maximal inhibition (IC50). The same measure for `COc1nc(NCCc2c(F)cccc2Cl)cc(-c2cccc(C=O)c2)n1` [Example 35(v), 3-{6-[2-(2-chloro-6-fluoro-phenyl)-ethylamino]-2-methoxy-pyrimidin-4-yl}-benzaldehyde]: 3.6 nM; for `COc1nc(NCCc2ccc(Cl)cc2Cl)cc(-c2cccc(C(=O)O)c2)n1` [Example 35(w), 3-{6-[2-(2,4-dichloro-phenyl)-ethylamino]-2-methoxy-pyrimidin-4-yl}-benzoic acid]: 0.3 nM; for `COc1ccc(CCNc2cc(-c3cccnc3)nc(OC)n2)cc1` [Example 35(x), [2-methoxy-(6-pyridin-3-yl)-pyrimidin-4-yl]-[2-(4-methoxy-phenyl)-ethyl]-amine]: 10 nM. `CCOC(=O)c1cc(-c2cc(NCCc3ccc(OC)cc3)nc(OC)n2)ccc1Cl` [Example 35(z), 2-Chloro-5-{2-methoxy-6-[2-(4-methoxy-phenyl)-ethylamino]-pyrimidin-4-yl}-benzoic acid ethyl ester] came in with an IC50 of 32 nM.

In the case of `COc1ccc(CCNc2cc(-c3cccc(-c4nc(C)no4)c3)nc(OC)n2)cc1` [Example 36, {2-Methoxy-6-[3-(3-methyl-[1,2,4]oxadiazol-5-yl)-phenyl]-pyrimidin-4-yl}-[2-(4-methoxy-phenyl)-ethyl]-amine], the IC50 was found to be 2.6 nM. With `COc1ccc(CCNc2cc(-c3cccc(-c4nnc(C)[nH]4)c3)nc(OC)n2)cc1` [Example 37, {2-Methoxy-6-[3-(5-methyl-2H-[1,2,4]triazol-3-yl)-phenyl]-pyrimidin-4-yl}-[2-(4-methoxy-phenyl)-ethyl]-amine], the IC50 worked out at 3.7 nM. Next, `COc1ccc(CCNc2cc(-c3cccc(-c4cc(C)no4)c3)nc(OC)n2)cc1` [Example 38, {2-Methoxy-6-[3-(3-methyl-isoxazol-5-yl)-phenyl]-pyrimidin-4-yl}-[2-(4-methoxy-phenyl)-ethyl]-amine]: 6 nM; `COc1nc(NCCc2ccc(OC)c(F)c2)cc(-c2cccc(-c3nn[nH]n3)c2)n1` [Example 40, [2-(3-Fluoro-4-methoxy-phenyl)-ethyl]-{2-methoxy-6-[3-(2H-tetrazol-5-yl)-phenyl]-pyrimidin-4-yl}-amine]: 0.4 nM; `CCNC(=O)Nc1cccc(-c2cc(NCCc3ccc(OC)cc3)nc(OC)n2)c1` [Example 41, 1-Ethyl-3-(3-{2-methoxy-6-[2-(4-methoxy-phenyl)-ethylamino]-pyrimidin-4-yl}-phenyl)-urea]: 7.6 nM. Regarding `COc1nc(NC(C)Cc2ccc(Cl)cc2)cc(-c2ccc(OC)c(OC)c2)n1` (centres unmarked) [Example 43(a), [2-(4-Chloro-phenyl)-1-methyl-ethyl]-[6-(3,4-dimethoxy-phenyl)-2-methoxy-pyrimidin-4-yl]-amine], inhibition was half-maximal at 1730 nM (IC50). This IC50 lies about 230-fold higher than the previous one. Next, `COc1cccc(-c2cc(NCCc3ccc([N+](=O)[O-])cc3)nc(OC)n2)c1` [Example 43(b), [2-Methoxy-6-(3-methoxy-phenyl)-pyrimidin-4-yl]-[2-(4-nitro-phenyl)-ethyl]-amine]: 0.9 nM; `COc1cccc(-c2cc(NCCc3cccs3)nc(OC)n2)c1` [Example 43(e), [2-Methoxy-6-(3-methoxy-phenyl)-pyrimidin-4-yl]-(2-thiophen-2-yl-ethyl)-amine hydrochloride]: 9.7 nM; `COc1cccc(-c2cc(NCCc3c[nH]c4cc(OC)ccc34)nc(OC)n2)c1` [Example 43(g), [2-(6-Methoxy-1H-indol-3-yl)-ethyl]-[2-methoxy-6-(3-methoxy-phenyl)-pyrimidin-4-yl]-amine hydrochloride]: 104 nM. Next, `COc1cccc(-c2cc(NCCc3cccnc3)nc(OC)n2)c1` [Example 43(i), [2-Methoxy-6-(3-methoxy-phenyl)-pyrimidin-4-yl]-(2-pyridin-3-yl-ethyl)-amine hydrochloride]: 248 nM. `COc1ccc(CNc2cc(-c3cccc(OC)c3)nc(OC)n2)cc1` [Example 43(k), (4-Methoxy-benzyl-[2-methoxy-6-(3-methoxy-phenyl)-pyrimidin-4-yl]-amine hydrochloride]: the IC50 turned out to be 1070 nM.

`COc1cccc(-c2cc(NCCCc3ccccc3)nc(OC)n2)c1` [Example 43(l), [2-Methoxy-6-(3-methoxy-phenyl)-pyrimidin-4-yl]-(3-phenyl-propyl)-amine hydrochloride] had an IC50 of 1690 nM. This IC50 lies about 1.6-fold higher than the previous one.

On to `COc1ccc(C[C@H](Nc2cc(-c3cccc(OC)c3)nc(OC)n2)C(=O)O)cc1` [Example 43(n), (2S)-2-[2-Methoxy-6-(3-methoxy-phenyl)-pyrimidin-4-ylamino]-3-(4-methoxy-phenyl)-propionic acid], for which the half-maximal inhibitory concentration (IC50) is 548 nM. Take `COc1ccc(CCNc2cc(-c3nnc(C)o3)nc(OC)n2)cc1` [Example 44, [2-Methoxy-6-(5-methyl-[-1,3,4]oxadiazol-2-yl)-pyrimidin-4-yl]-[2-(4-methoxy-phenyl)-ethyl]-amine]: the IC50 worked out at 55 nM.

`COc1ccc(CCNc2cc(-c3cnco3)nc(OC)n2)cc1` [Example 45, (2-Methoxy-6-oxazol-5-yl-pyrimidin-4-yl)-[2-(4-methoxy-phenyl)-ethyl]-amine]: the IC50 is 7.8 nM. Next, `COc1nc(NCCc2ccc3c(c2)OC(F)(F)O3)cc(-c2cccnc2)n1` [Example 46(b), [2-(2,2-difluoro-benzo[1,3]dioxol-5-yl)-ethyl]-(2-methoxy-6-pyridin-3-yl-pyrimidin-4-yl)-amine]: 212 nM; `COc1nc(NCCc2ccc(OC(F)F)cc2)cc(-c2cccc(NC(C)=O)c2)n1` [Example 46(c), N-(3-{6-[2-(4-Difluoromethoxy-phenyl)-ethylamino]-2-methoxy-pyrimidin-4-yl}-phenyl)-acetamide hydrochloride]: 4 nM. In the case of `COc1nc(NCCc2ccc(Cl)cc2Cl)cc(-c2cccc(C(C)(C)c3nnn[nH]3)c2)n1` [Example 47, hydrochloride], the IC50 was 0.4 nM.
